# Assay results reported in patent publication EP0255256A2, “Antibiotics produced by actinomadura parvosata” (SMITHKLINE BECKMAN CORPORATION, priority 1986, dated 1988).
# Where two headings read alike, the source gives them in different places.
# How the values were obtained:
# [1] = tested on: Staph. aureus 675; assay: MBC, standard assay procedures; format: cell-based; settings: Staphylococcus aureus, Staph. aureus 675, read-out: MBC
# Experimental: (§1) The in vitro minimal bactericidal concentration (MBC) of the AAJ-271 C, C2 and C3 factors and vancomycin were determined for a number of microorganisms using standard assay procedures.
# (§2) The in vitro minimal inhibitory concentration (MIC) and the in vitro minimal bactericidal concentration (MBC) of the AAJ-271 aglycones, pseudo-aglycone and vancomycin were determined for a number of microorganisms using the standard microtiter assay procedures.
# [2] = tested on: Staph. epidermidis 2479; assay: MBC, standard assay procedures; format: cell-based; settings: Staphylococcus epidermidis, Staph. epidermidis 2479, read-out: MBC
# Experimental: as §1, §2
# [3] = tested on: Strep. faecalis 657; assay: MBC, standard assay procedures; format: cell-based; settings: Enterococcus faecalis, Strep. faecalis 657, read-out: MBC
# Experimental: as §1, §2
# [4] = tested on: Staph. aureus HH127; assay: MBC, standard assay procedures; format: cell-based; settings: Staphylococcus aureus, Staph. aureus HH127, read-out: MBC
# Experimental: as §1, §2
# [5] = tested on: Staph. aureus 2620; assay: MBC, standard assay procedures; format: cell-based; settings: Staphylococcus aureus, Staph. aureus 2620, read-out: MBC
# Experimental: as §1, §2
# [6] = tested on: Strep. faecalis 34358; assay: MBC, standard assay procedures; format: cell-based; settings: Enterococcus faecalis, Strep. faecalis 34358, read-out: MBC
# Experimental: as §1, §2
# [7] = tested on: Staph. haemolyticus 651; assay: MBC, standard assay procedures; format: cell-based; settings: Staphylococcus haemolyticus, Staph. haemolyticus 651, read-out: MBC
# Experimental: as §1, §2
# [8] = tested on: Staph. epidermidis 2265; assay: MBC, standard assay procedures; format: cell-based; settings: Staphylococcus epidermidis, Staph. epidermidis 2265, read-out: MBC
# Experimental: as §1, §2
# [9] = tested on: Staph. aureus 675; assay: MIC, standard microtiter assay; format: cell-based; settings: Staphylococcus aureus, Staph. aureus 675, read-out: MIC
# Experimental: (§3) The in vitro minimal inhibitory concentration (MIC) of the AAJ-271 complex and its factors, and vancomycin were determined for a number of microorganisms using the standard microtite'r assay procedures. The results are shown in the following tables, each of which represents a different production run of the complex.
# as §2
# [10] = tested on: Staph. epidermidis 2479; assay: MIC, standard microtiter assay; format: cell-based; settings: Staphylococcus epidermidis, Staph. epidermidis 2479, read-out: MIC
# Experimental: as §3, §2
# [11] = tested on: Strep. faecalis 657; assay: MIC, standard microtiter assay; format: cell-based; settings: Enterococcus faecalis, Strep. faecalis 657, read-out: MIC
# Experimental: as §3, §2
# [12] = tested on: Staph. aureus HH127; assay: MIC, standard microtiter assay; format: cell-based; settings: Staphylococcus aureus, Staph. aureus HH127, read-out: MIC
# Experimental: as §3, §2
# [13] = tested on: Staph. aureus 2620; assay: MIC, standard microtiter assay; format: cell-based; settings: Staphylococcus aureus, Staph. aureus 2620, read-out: MIC
# Experimental: as §3, §2
# [14] = tested on: Strep. faecalis 34358; assay: MIC, standard microtiter assay; format: cell-based; settings: Enterococcus faecalis, Strep. faecalis 34358, read-out: MIC
# Experimental: as §3, §2
# [15] = tested on: Staph. haemolyticus 651; assay: MIC, standard microtiter assay; format: cell-based; settings: Staphylococcus haemolyticus, Staph. haemolyticus 651, read-out: MIC
# Experimental: as §3, §2
# [16] = tested on: Staph. epidermidis 2265; assay: MIC, standard microtiter assay; format: cell-based; settings: Staphylococcus epidermidis, Staph. epidermidis 2265, read-out: MIC
# Experimental: as §3, §2
# [17] = tested on: Staph. aureus 2630; assay: Mouse protection assay; format: in vivo; settings: Staphylococcus aureus, 2630, 1 h
# [18] = tested on: Staph. epidermidis 2261; assay: MIC, standard microtiter assay; format: cell-based; settings: Staphylococcus epidermidis; Staph. epidermidis 2261; Table VIII; read-out: MIC
# Experimental: as §2
# [19] = tested on: Staph. aureus 209P vancomycin resistant mutant; assay: MIC, standard microtiter assay; format: cell-based; settings: Staphylococcus aureus, read-out: MIC in μg/ml
# Experimental: as §2
# [20] = tested on: Staph. aureus HH127; assay: Mouse protection assay; format: in vivo; settings: Staphylococcus aureus, 1 h; mice; intraperitoneal s.c. infection; Staph. aureus HH127, Dosage as No. of LD50's = 4; treatment one hour post infection; Table X; read-out: ED50
# [21] = tested on: Staph. aureus 209P; assay: MIC, standard microtiter assay; format: cell-based; settings: Staphylococcus aureus; Staph. aureus 209P; Table VIII; read-out: MIC
# Experimental: as §3, §2
# [22] = tested on: Staph. aureus 910; assay: MIC, standard microtiter assay; format: cell-based; settings: Staphylococcus aureus; Staph. aureus 910; Table VIII; read-out: MIC
# Experimental: as §3, §2
# [23] = tested on: Staph. epidermidis 2588; assay: MIC, standard microtiter assay; format: cell-based; settings: Staphylococcus epidermidis; Staph. epidermidis 2588; Table VIII; read-out: MIC
# Experimental: as §3, §2
# [24] = tested on: Staph. epidermidis 2256; assay: MIC, standard microtiter assay; format: cell-based; settings: Staphylococcus epidermidis; Staph. epidermidis 2256; Table VIII; read-out: MIC
# Experimental: as §3, §2
# [25] = tested on: Strep. pyogenes (Group A); assay: MIC, standard microtiter assay; format: cell-based; settings: Streptococcus pyogenes; Strep. pyogenes (Group A); Table VIII; read-out: MIC
# Experimental: as §3, §2
# [26] = tested on: Staph. saprophyticus 2657; assay: MIC, standard microtiter assay; format: cell-based; settings: Staphylococcus saprophyticus; Staph. saprophyticus 2657; Table VIII; read-out: MIC
# Experimental: as §3, §2
# [27] = tested on: Staph. epidermidis 2261; assay: MBC, standard assay procedures; format: cell-based; settings: Staphylococcus epidermidis; Staph. epidermidis 2261; Table VIII; read-out: MBC
# Experimental: as §2
# [28] = tested on: Staph. aureus 209P vancomycin resistant mutant; assay: MBC, standard assay procedures; format: cell-based; settings: Staphylococcus aureus, read-out: MBC in μg/ml
# Experimental: as §2
# [29] = tested on: Staph. aureus 209P; assay: MBC, standard assay procedures; format: cell-based; settings: Staphylococcus aureus; Staph. aureus 209P; Table VIII; read-out: MBC
# Experimental: as §2
# [30] = tested on: Staph. aureus 910; assay: MBC, standard assay procedures; format: cell-based; settings: Staphylococcus aureus; Staph. aureus 910; Table VIII; read-out: MBC
# Experimental: as §2
# [31] = tested on: Staph. epidermidis 2588; assay: MBC, standard assay procedures; format: cell-based; settings: Staphylococcus epidermidis; Staph. epidermidis 2588; Table VIII; read-out: MBC
# Experimental: as §2
# [32] = tested on: Staph. epidermidis 2256; assay: MBC, standard assay procedures; format: cell-based; settings: Staphylococcus epidermidis; Staph. epidermidis 2256; Table VIII; read-out: MBC
# Experimental: as §2
# [33] = tested on: Strep. pyogenes (Group A); assay: MBC, standard assay procedures; format: cell-based; settings: Streptococcus pyogenes; Strep. pyogenes (Group A); Table VIII; read-out: MBC
# Experimental: as §2
# [34] = tested on: Staph. saprophyticus 2657; assay: MBC, standard assay procedures; format: cell-based; settings: Staphylococcus saprophyticus; Staph. saprophyticus 2657; Table VIII; read-out: MBC
# Experimental: as §2
# [35] = tested on: Strep. faecalis 34358; assay: Mouse protection assay; format: in vivo; settings: Enterococcus faecalis, 1 h; mice; intraperitoneal s.c. infection; Strep. faecalis 34358, Dosage as No. of LD50's = 3.5; treatment one hour post infection; Table X; read-out: ED50
smiles,measurement,setting,value
CNC1C(=O)NC2Cc3ccc(cc3)Oc3cc4cc(c3O)Oc3ccc(cc3Cl)C(O)C3NC(=O)C(NC(=O)C4NC(=O)C(NC2=O)c2cc(cc(O)c2Cl)Oc2cc1ccc2O)c1ccc(O)c(c1)-c1c(O[C@H]2O[C@H](CO)[C@@H](O)[C@H](O)[C@@H]2O)cc(O)cc1C(C(=O)O)NC3=O (stereo partly drawn) [AAJ 271 Pseudo-aglycone],MBC,[1]; Table IX,3.1 µg/mL
same,MBC,[2]; Table IX,6.3 µg/mL
same,MBC,[3]; Table IX,3.1 µg/mL
same,MBC,[4]; Table IX,6.3 µg/mL
same,MBC,[5]; Table IX,3.1 µg/mL
same,MBC,[6]; Table IX,3.1 µg/mL
same,MBC,[7]; Table IX,25 µg/mL
same,MBC,[8]; Table IX,12.5 µg/mL
same,MIC,[9]; Table IX,3.1 µg/mL
same,MIC,[10]; Table IX,6.3 µg/mL
same,MIC,[11]; Table IX,3.1 µg/mL
same,MIC,[12]; Table IX,3.1 µg/mL
same,MIC,[13]; Table IX,3.1 µg/mL
same,MIC,[14]; Table IX,3.1 µg/mL
same,MIC,[15]; Table IX,25 µg/mL
same,MIC,[16]; Table IX,12.5 µg/mL
CNC1C(=O)NC2Cc3ccc(cc3)Oc3cc4cc(c3O)Oc3ccc(cc3Cl)C(O)C3NC(=O)C(NC(=O)C4NC(=O)C(NC2=O)c2cc(cc(O)c2Cl)Oc2cc1ccc2O)c1ccc(O)c(c1)-c1c(O)cc(O)cc1C(C(=O)O)NC3=O (stereo not drawn) [Aglycone 1],ED50,[17],6.4 mg/kg
same,MIC,[18],0.8 µg/mL
same,MIC,[19],25 µg/mL
same,ED50,[20],0.88 mg/kg
same,MBC,[1]; Table VIII,6.3 µg/mL
same,MBC,[2]; Table VIII,6.3 µg/mL
same,MBC,[3]; Table VIII,100 µg/mL
same,MBC,[4]; Table VIII,1.6 µg/mL
same,MBC,[5]; Table VIII,3.1 µg/mL
same,MBC,[6]; Table VIII,100 µg/mL
same,MBC,[7]; Table VIII,6.3 µg/mL
same,MBC,[8]; Table VIII,0.4 µg/mL
same,MIC,[21],0.4 µg/mL
same,MIC,[22],0.4 µg/mL
same,MIC,[9]; Table VIII,0.8 µg/mL
same,MIC,[10]; Table VIII,0.8 µg/mL
same,MIC,[11]; Table VIII,1.6 µg/mL
same,MIC,[12]; Table VIII,0.4 µg/mL
same,MIC,[23],0.8 µg/mL
same,MIC,[24],1.6 µg/mL
same,MIC,[13]; Table VIII,0.4 µg/mL
same,MIC,[14]; Table VIII,1.6 µg/mL
same,MIC,[25],0.8 µg/mL
same,MIC,[15]; Table VIII,3.1 µg/mL
same,MIC,[16]; Table VIII,0.4 µg/mL
same,MIC,[26],0.8 µg/mL
same,MBC,[27],1.6 µg/mL
same,MBC,[28],25 µg/mL
same,MBC,[29],3.1 µg/mL
same,MBC,[30],3.1 µg/mL
same,MBC,[31],0.8 µg/mL
same,MBC,[32],1.6 µg/mL
same,MBC,[33],0.8 µg/mL
same,MBC,[34],1.6 µg/mL
same,ED50,[35],5 mg/kg
